Data published in patent publication US20120053200A1, “BACE 2 INHIBITORS” (priority 2010, published 2012).

What follows are compounds tested against T1, BACE2 (Rattus norvegicus, UniProt Q6IE75) (assay: Assay for BACE inhibition by measuring cellular TMEM27 cleavage (INS-TMEM27 cells, ELISA of shed TMEM27)). Conditions: inhibition of human TMEM27 cleavage by endogenous cellular BACE2 in INS1e-derived INS-TMEM27 rat cell line; ELISA of shed TMEM27 in supernatant.
T1 construct: endogenous cellular BACE2 in the Ins1e rat cell line; endogenous in cells; host or cells: INS-TMEM27 (INS1e-derived rat beta-cell line with doxycycline-inducible full-length hTMEM27)
T1 sequence (Q6IE75 63-514): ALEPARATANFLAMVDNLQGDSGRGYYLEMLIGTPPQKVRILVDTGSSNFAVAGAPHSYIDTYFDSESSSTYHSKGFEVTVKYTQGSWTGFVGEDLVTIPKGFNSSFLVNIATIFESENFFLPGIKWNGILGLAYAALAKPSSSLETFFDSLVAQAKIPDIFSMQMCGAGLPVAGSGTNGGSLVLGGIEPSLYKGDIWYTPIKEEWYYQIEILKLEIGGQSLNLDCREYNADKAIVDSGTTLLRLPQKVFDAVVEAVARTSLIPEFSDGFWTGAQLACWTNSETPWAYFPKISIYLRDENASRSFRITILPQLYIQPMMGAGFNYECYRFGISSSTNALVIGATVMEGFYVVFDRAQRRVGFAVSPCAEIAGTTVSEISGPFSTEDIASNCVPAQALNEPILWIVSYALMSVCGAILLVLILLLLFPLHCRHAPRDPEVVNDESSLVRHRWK
Format: cell-based
Source text: Assay for […] Inhibition by Measuring Cellular TMEM27 Cleavage
This assay uses the principle of inhibition of human TMEM27 cleavage by endogenous cellular BACE2 in the Ins1e rat cell line and shedding from the cell surface into the culture medium, followed by detection in an ELISA assay. Inhibition of BACE2 prevents the cleavage and shedding in a dose-dependent manner.
The stable cell line “INS-TMEM27” represents an INS1e-derived cell line with inducible expression (using the TetOn system) of full-length hTMEM27 in a doxycycline-dependent manner. The cells were cultured throughout the experiment in RPMI1640+Glutamax (Invitrogen) Penicillin/Streptomycin, 10% Fetal bovine serum, 100 mM pyruvate, […] beta-mercatptoethanol, 100 micrograms/ml G418 and 100 microgram/ml hygromycin and were grown in adherent culture at 37° C. in a standard CO2 cell culture incubator.
INS-TMEM27 cells were seeded in 96-well plates. After 2 days in culture, BACE2 inhibitor was added in a range of concentrations as required by the assay and after a further two hours, doxycycline was added to a final concentration of 500 ng/ml. The cells were incubated for a further 46 hours and the supernatant harvested for detection of shed TMEM27.
An ELISA assay (using a pair of mouse anti-human-TMEM27 antibodies, raised against the extracellular domain of TMEM27) was used for detection of TMEM27 in the culture medium. An IC50 for BACE2 inhibition was calculated using the ELISA readout for each inhibitor concentration with standard curve-fitting software.
The inhibitory activity, given as an IC50 value, of the compounds of Examples 1 to 32 and 34 to 74 were as follows.
CC(=O)C1CC(c2ccc(F)cc2)N(C(=O)c2cccc(C(=O)N[C@@H](Cc3ccccc3)[C@H](O)CNCc3cccc(C(F)(F)F)c3)c2)C1 (stereo partly drawn) [Example 64, 3-[4-Acetyl-2-(4-fluoro-phenyl)-pyrrolidine-1-carbonyl]-N-[(1S,2R)-1-benzyl-2-hydroxy-3-(3-trifluoromethyl-benzylamino)-propyl]-benzamide] showed an IC50 of 26 nM. For CCn1cc(CNC[C@@H](O)[C@H](Cc2ccccc2)NC(=O)c2cccc(C(=O)N3CCCC3c3cccs3)c2)cn1 (stereo partly drawn) [Example 31, N-{(1S,2R)-1-Benzyl-3-[(1-ethyl-1H-pyrazol-4-ylmethyl)-amino]-2-hydroxy-propyl}-3-(2-thiophen-2-yl-pyrrolidine-1-carbonyl)-benzamide], the IC50 was 239 nM. Cc1cc(C2CCCN2C(=O)c2cccc(C(=O)N[C@@H](Cc3ccccc3)[C@H](O)CNCc3cccc(C(F)(F)F)c3)c2)ccc1Cl (stereo partly drawn) [Example 60, N-[(1S,2R)-1-Benzyl-2-hydroxy-3-(3-trifluoromethyl-benzylamino)-propyl]-3-[2-(4-chloro-3-methyl-phenyl)-pyrrolidine-1-carbonyl]-benzamide] was tested, and the IC50 was 267 nM. CC(C)(C)C1CCCN1C(=O)c1cccc(C(=O)N[C@@H](Cc2ccccc2)[C@H](O)CNCc2cccc(C(F)(F)F)c2)c1 (stereo partly drawn) [Example 73, N-[(1S,2R)-1-Benzyl-2-hydroxy-3-(3-trifluoromethyl-benzylamino)-propyl]-3-(2-tert-butyl-pyrrolidine-1-carbonyl)-benzamide] gave an IC50 of 56 nM. CCn1cc(CNC[C@@H](O)[C@H](Cc2ccccc2)NC(=O)c2cc(C)cc(C(=O)N3CCC[C@@H]3c3nc(C)cs3)c2)cn1 [Example 34, N-{(1S,2R)-1-Benzyl-3-[(1-ethyl-1H-pyrazol-4-ylmethyl)-amino]-2-hydroxy-propyl}-3-methyl-5-[(R)-2-(4-methyl-thiazol-2-yl)-pyrrolidine-1-carbonyl]-benzamide] was tested, and the IC50 was 145 nM. O=C(NCc1ccccn1)c1cccc(C(=O)N[C@@H](Cc2ccccc2)[C@H](O)CNCc2cccc(C(F)(F)F)c2)c1 [Example 7, N-[(1S,2R)-1-Benzyl-2-hydroxy-3-(3-trifluoromethyl-benzylamino)-propyl]-N′-pyridin-2-ylmethyl-isophthalamide] was tested, and the IC50 was 478 nM. With O=C(N[C@@H](Cc1ccccc1)[C@H](O)CNCc1cccc(C(F)(F)F)c1)c1cccc(C(=O)N2CCC[C@H]2c2ccc(F)cc2)c1 [Example 67, N-[(1S,2R)-1-Benzyl-2-hydroxy-3-(3-trifluoromethyl-benzylamino)-propyl]-3-[(S)-2-(4-fluoro-phenyl)-pyrrolidine-1-carbonyl]-benzamide] the IC50 was 4 nM. In the case of CCn1cc(CNC[C@@H](O)[C@H](Cc2ccccc2)NC(=O)c2cccc(C(=O)N3CCCC3c3ccccc3)c2)cn1 (stereo partly drawn) [Example 23, N-{(1S,2R)-1-Benzyl-3-[(1-ethyl-1H-pyrazol-4-ylmethyl)-amino]-2-hydroxy-propyl}-3-(2-phenyl-pyrrolidine-1-carbonyl)-benzamide], the IC50 is reported as 57.7 nM. Cc1ccc(C2CCCN2C(=O)c2cccc(C(=O)N[C@@H](Cc3ccccc3)[C@H](O)CNCc3cccc(C(F)(F)F)c3)c2)cc1 (stereo partly drawn) [Example 55, N-[(1S,2R)-1-Benzyl-2-hydroxy-3-(3-trifluoromethyl-benzylamino)-propyl]-3-(2-p-tolyl-pyrrolidine-1-carbonyl)-benzamide] was tested, and the IC50 was 42 nM. O=C(N[C@@H](Cc1ccccc1)[C@H](O)CNCc1cccc(C(F)(F)F)c1)c1cccc(C(=O)N2CCCC2c2cccs2)c1 (stereo partly drawn) [Example 19, N-[(1S,2R)-1-Benzyl-2-hydroxy-3-(3-trifluoromethyl-benzylamino)-propyl]-3-(2-thiophen-2-yl-pyrrolidine-1-carbonyl)-benzamide] showed an IC50 of 8 nM. In the case of CCn1cc(CNC[C@@H](O)[C@H](Cc2ccccc2)NC(=O)c2cc(C)cc(C(=O)N3CCCC3c3ccccc3)c2)cn1 (stereo partly drawn) [Example 36, N-{(1S,2R)-1-Benzyl-3-[(1-ethyl-1H-pyrazol-4-ylmethyl)-amino]-2-hydroxy-propyl}-3-methyl-5-(2-phenyl-pyrrolidine-1-carbonyl)-benzamide], the IC50 is reported as 1 nM. O=C(N[C@@H](Cc1ccccc1)[C@H](O)CNCc1cccc(C(F)(F)F)c1)c1cccc(C(=O)N2CCCC2c2ccc(F)c(Cl)c2)c1 (stereo partly drawn) [Example 59, N-[(1S,2R)-1-Benzyl-2-hydroxy-3-(3-trifluoromethyl-benzylamino)-propyl]-3-[2-(3-chloro-4-fluoro-phenyl)-pyrrolidine-1-carbonyl]-benzamide] was tested, and the IC50 was 33 nM. Cc1cccc(C2CCCN2C(=O)c2cccc(C(=O)N[C@@H](Cc3ccccc3)[C@H](O)CNCc3cccc(C(F)(F)F)c3)c2)c1 (stereo partly drawn) [Example 58, N-[(1S,2R)-1-Benzyl-2-hydroxy-3-(3-trifluoromethyl-benzylamino)-propyl]-3-(2-m-tolyl-pyrrolidine-1-carbonyl)-benzamide] showed an IC50 of 89 nM. For Cc1cc(C(=O)N[C@@H](Cc2ccccc2)[C@H](O)CNCc2cccc(OC(F)(F)F)c2)cc(C(=O)N(C)Cc2nc(C)cs2)c1 [Example 47, N-[(1S,2R)-1-Benzyl-2-hydroxy-3-(3-trifluoromethoxy-benzylamino)-propyl]-5,N′-dimethyl-N′-(4-methyl-thiazol-2-ylmethyl)-isophthalamide], the IC50 was 117 nM. In the case of CCn1cc(CNC[C@@H](O)[C@H](Cc2ccccc2)NC(=O)c2cc(C(=O)N3CCCC3c3cccs3)cc(N(C)S(C)(=O)=O)c2)cn1 (stereo partly drawn) [Example 38, N-{(1S,2R)-1-Benzyl-3-[(1-ethyl-1H-pyrazol-4-ylmethyl)-amino]-2-hydroxy-propyl}-3-(methanesulfonyl-methyl-amino)-5-(2-thiophen-2-yl-pyrrolidine-1-carbonyl)-benzamide], the IC50 is reported as 0.3 nM. In the case of CCn1cc(CNC[C@@H](O)[C@H](Cc2ccccc2)NC(=O)c2cc(C)cc(C(=O)N3CCCC3c3cccs3)c2)cn1 (stereo partly drawn) [Example 39, N-{(1S,2R)-1-Benzyl-3-[(1-ethyl-1H-pyrazol-4-ylmethyl)-amino]-2-hydroxy-propyl}-3-methyl-5-(2-thiophen-2-yl-pyrrolidine-1-carbonyl)-benzamide], the IC50 is reported as 1 nM. O=C(N[C@@H](Cc1ccccc1)[C@H](O)CNCc1cccc(C(F)(F)F)c1)c1cccc(C(=O)N2CCCC2c2ccncc2)c1 (stereo partly drawn) [Example 5, N-[(1S,2R)-1-Benzyl-2-hydroxy-3-(3-trifluoromethyl-benzylamino)-propyl]-3-(2-pyridin-4-yl-pyrrolidine-1-carbonyl)-benzamide] gave an IC50 of 140 nM. With CCn1cc(CNC[C@@H](O)[C@H](Cc2ccccc2)NC(=O)c2cc(C)cc(C(=O)N(C)Cc3ccccn3)c2)cn1 [Example 37, N-{(1S,2R)-1-Benzyl-3-[(1-ethyl-1H-pyrazol-4-ylmethyl)-amino]-2-hydroxy-propyl}-5,N′-dimethyl-N′-pyridin-2-ylmethyl-isophthalamide] the IC50 was 1 nM. Work on Cc1csc([C@H]2CCCN2C(=O)c2cccc(C(=O)N[C@@H](Cc3ccccc3)[C@H](O)CNCc3cccc(C(F)(F)F)c3)c2)n1 [Example 11, N-[(1S,2R)-1-Benzyl-2-hydroxy-3-(3-trifluoromethyl-benzylamino)-propyl]-3-[(R)-2-(4-methyl-thiazol-2-yl)-pyrrolidine-1-carbonyl]-benzamide] yielded an IC50 of 9 nM. For O=C(N[C@@H](Cc1ccccc1)[C@H](O)CNCc1cccc(OC(F)(F)F)c1)c1cccc(C(=O)N2CCCC2c2ccncc2)c1 (stereo partly drawn) [Example 4, N-[(1S,2R)-1-Benzyl-2-hydroxy-3-(3-trifluoromethoxy-benzylamino)-propyl]-3-(2-pyridin-4-yl-pyrrolidine-1-carbonyl)-benzamide], the IC50 was 471 nM.
